Patent publication US9376705B2, “Method for detecting susceptibility of microorganisms to chemical agents” (Idmic SA, priority 2012, dated 2016)

Assays:
Assay type in all cases: cell-based
[1] = tested on: Citrobacter ssp strain susceptible to ampicillin and ceftriaxone; experiment: Susceptibility testing by MALDI-TOF mass spectra of culture supernatant, Citrobacter ssp strain susceptible to ampicillin and ceftriaxone; conditions: treatment with 8 mg/L, FIG. 4
Experimental: (§1) In a first process step 10, approximately ten colonies of microorganisms of the bacterial type Enterobacteriaceae are added to 1 mL of a liquid Müller-Hinton broth nutrient medium. The turbidity of the microorganisms in the liquid nutrient medium is 0.5 on McFarland standards, corresponding to approximately 1.5×10^8 colony forming units/mL.
(§2) In a second process step 20, 5 μL of 5-25 mM, especially 25 mM of a water-soluble salt of malic acid or ascorbic acid, for example sodium malate as an enhancer for Enterobacteriaceae family bacteria is added into the liquid nutrient medium. The enhancer may also be added into the liquid nutrient medium in solid form.
(§3) In a third process step 30, the microorganisms in the nutrient medium are pre-incubated at 37° C. for 30 minutes.
(§4) In a fourth process step 40, a quantity of a chemical agent or antibiotic equal to the threshold level of the given microorganism according to the Clinical and Laboratory Standards Institute is added to the microorganisms in the liquid nutrient medium.
(§5) In a fifth process step 50, the microorganisms in the nutrient medium are incubated at 37° C. for 60 minutes.
(§6) In a sixth process step 60, the microorganisms are removed from the nutrient medium by centrifugation at 10′000 g or 15′000 g for 5 minutes at room temperature. The remaining supernatant is collected in a new experimental tube. […]

[2] = tested on: Escherichia coli strain resistant to ampicillin and ceftriaxone; experiment: Susceptibility testing by MALDI-TOF mass spectra of culture supernatant, Escherichia coli strain resistant to ampicillin and ceftriaxone; conditions: treatment with 8 mg/L; resistant E. coli strain; FIG. 3
Experimental: as §1, §2, §3, §4, §5, §6

[3] = tested on: Escherichia coli strain susceptible to ampicillin and ceftriaxone; experiment: Susceptibility testing by MALDI-TOF mass spectra of culture supernatant, Escherichia coli strain susceptible to ampicillin and ceftriaxone; conditions: treatment with 8 mg/L; susceptible E. coli strain; FIG. 2
Experimental: as §1, §2, §3, §4, §5, §6

CC1(C)S[C@@H]2[C@H](NC(=O)[C@H](N)c3ccccc3)C(=O)N2[C@H]1C(=O)O [ampicillin]
effect on bacteria as seen in mass spectrum of supernatant (protein/peptide signals) [1]: has been destroyed
effect on bacteria as seen in mass spectrum of supernatant (protein/peptide signals) [2]: no further significant signal
effect on bacteria as seen in mass spectrum of supernatant (protein/peptide signals) [3]: has been destroyed

CO/N=C(\C(=O)N[C@@H]1C(=O)N2C(C(=O)O)=C(CSc3nc(=O)c(=O)[nH]n3C)CS[C@H]12)c1csc(N)n1 [ceftriaxone]
effect on bacteria as seen in mass spectrum of supernatant (protein/peptide signals) [1]: has been destroyed
effect on bacteria as seen in mass spectrum of supernatant (protein/peptide signals) [2]: no further significant signal
effect on bacteria as seen in mass spectrum of supernatant (protein/peptide signals) [3]: has been destroyed
